Structures can show the parent of a compound that is named as a salt.

For one assay, the target named is Bcl-2 protein (histag-Bcl-2, UniProtKB P10415) (Homo sapiens (Human), UniProt P10415). The assay can be described thus: Inhibition of Bcl-2 by the fluorescence polarisation technique. It counts as binding. The following applies: fluorescence polarisation test; method A, or method B where underlined (underlining not visible); read-out: IC50 (nM) Bcl-2 FP. The text has this:
Inhibition of Bcl-2 by the fluorescence polarisation technique

Assay [1] deals with RS4;11 leukaemia tumour line. The assay can be described thus: In vitro cytotoxicity, Microculture Tetrazolium Assay (MTT). The following applies: Homo sapiens; RS4;11 cells, 48 hours exposure. It counts as cell-based. Here is the method:
The cytotoxicity studies were carried out on the RS4;11 leukaemia tumour line.
The cells are distributed onto microplates and exposed to the test compounds for 48 hours. The cell viability is then quantified by a colorimetric assay, the Microculture Tetrazolium Assay (Cancer Res., 1987, 47, 939-942).

Chain of Bcl-2 protein (P10415 whole entry): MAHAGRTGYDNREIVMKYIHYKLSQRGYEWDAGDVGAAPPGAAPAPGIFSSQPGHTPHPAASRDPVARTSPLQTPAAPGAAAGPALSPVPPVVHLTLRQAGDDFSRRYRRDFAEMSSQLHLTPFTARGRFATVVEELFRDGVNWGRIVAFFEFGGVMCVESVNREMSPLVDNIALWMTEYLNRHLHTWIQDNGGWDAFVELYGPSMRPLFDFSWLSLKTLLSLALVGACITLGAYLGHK

For orientation: IC50 means the concentration at which inhibition is half-maximal. In the case of `Cc1cc(C(=O)N(c2ccc(O)cc2)c2ccc3c(c2)CCN3)cn1-c1cc2c(cc1C(=O)N1Cc3ccccc3C[C@H]1CN1CCN(C)CC1)OCO2` [Example 103, N-(2,3-Dihydro-1H-indol-5-yl)-N-(4-hydroxyphenyl)-5-methyl-1-(6-{[(3S)-3-[(4-methylpiperazin-1-yl)methyl]-3,4-dihydroisoquinolin-2(1H)-yl]carbonyl}-1,3-benzodioxol-5-yl)-1H-pyrrole-3-carboxamide hydrochloride], the IC50 on Bcl-2 protein turned out to be 17.4 nM; in assay [1] it was 523 nM.
For the compound `Cc1cc(C(=O)N(c2ccc(O)cc2)c2ccc3[nH]ccc3c2)cn1-c1cc(Br)ccc1C(=O)N1Cc2ccccc2C[C@H]1CN1CCCC1` [Example 104, 1-(5-Bromo-2-{[(3S)-3-(pyrrolidin-1-ylmethyl)-3,4-dihydroisoquinolin-2(1H)-yl]carbonyl}phenyl)-N-(4-hydroxyphenyl)-N-(1H-indol-5-yl)-5-methyl-1H-pyrrole-3-carboxamide], the results for the IC50 (at Bcl-2 protein; in assay [1]) were 18.8 nM and 383 nM, respectively.
On to `Cc1cc(C(=O)N(c2ccc(O)cc2)c2ccc3c(ccn3C)c2)cn1-c1cc2c(cc1C(=O)N1Cc3ccccc3C[C@H]1CN1CCCC1)OCO2` [Example 105, N-(4-Hydroxyphenyl)-5-methyl-N-(1-methyl-1H-indol-5-yl)-1-(6-{[(3S)-3-(pyrrolidin-1-ylmethyl)-3,4-dihydroisoquinolin-2(1H)-yl]carbonyl}-1,3-benzodioxol-5-yl)-1H-pyrrole-3-carboxamide hydrochloride], for which the IC50 at Bcl-2 protein was determined as 13.6 nM; in assay [1] it was 202 nM.
As for `Cc1ccc(N(C(=O)c2cc(C)n(-c3cc4c(cc3C(=O)N3Cc5ccccc5C[C@H]3CN3CCOCC3)OCO4)c2)c2ccc(O)cc2)cc1` [Example 106, N-(4-Hydroxyphenyl)-5-methyl-N-(4-methylphenyl)-1-(6-{[(3S)-3-(morpholin-4-ylmethyl)-3,4-dihydroisoquinolin-2(1H)-yl]carbonyl}-1,3-benzodioxol-5-yl)-1H-pyrrole-3-carboxamide hydrochloride], the IC50 at Bcl-2 protein is 19.6 nM; in assay [1], 521 nM.
As for `Cc1cc(C(=O)N(c2ccccc2)c2ccc(O)cc2)cn1-c1cc2c(cc1C(=O)N1Cc3ccccc3C[C@H]1CN1CCOCC1)CCC2` [Example 107, N-(4-Hydroxyphenyl)-5-methyl-1-(6-{[(3S)-3-(morpholin-4-ylmethyl)-3,4-dihydroisoquinolin-2(1H)-yl]carbonyl}-2,3-dihydro-1H-inden-5-yl)-N-phenyl-1H-pyrrole-3-carboxamide hydrochloride], the IC50 on Bcl-2 protein was determined as 44 nM; in assay [1], 150 nM.
As for `Cc1cc(C(=O)N(c2ccccc2)c2ccc(O)cc2)cn1-c1cc2c(cc1C(=O)N1Cc3ccccc3C[C@H]1CN1CCOCC1)OCO2` [Example 108, N-(4-Hydroxyphenyl)-5-methyl-1-(6-{[(3S)-3-(morpholin-4-ylmethyl)-3,4-dihydroisoquinolin-2(1H)-yl]carbonyl}-1,3-benzodioxol-5-yl)-N-phenyl-1H-pyrrole-3-carboxamide hydrochloride], the values for the IC50 (at Bcl-2 protein; in assay [1]) were 35.5 nM and 544 nM, respectively.
The like results for `Cc1cc(C(=O)N(c2ccc(O)cc2)c2ccc3c(ccn3C)c2)cn1-c1cc2c(cc1C(=O)N1Cc3ccccc3C[C@H]1CN1CCOCC1)OCO2` [Example 109, N-(4-Hydroxyphenyl)-5-methyl-N-(1-methyl-1H-indol-5-yl)-1-(6-{[(3S)-3-(morpholin-4-ylmethyl)-3,4-dihydroisoquinolin-2(1H)-yl]carbonyl}-1,3-benzodioxol-5-yl)-1H-pyrrole-3-carboxamide hydrochloride] were, in that order, 4.4 nM and 116 nM.
For the compound `Cc1cc(C(=O)N(c2ccc(O)cc2)c2ccc3c(c2)CCN3)cn1-c1cc2c(cc1C(=O)N1Cc3ccccc3C[C@H]1CN1CCOCC1)CCC2` [Example 110, N-(2,3-Dihydro-1H-indol-5-yl)-N-(4-hydroxyphenyl)-5-methyl-1-(6-{[(3S)-3-(morpholin-4-ylmethyl)-3,4-dihydroisoquinolin-2(1H)-yl]carbonyl}-2,3-dihydro-1H-inden-5-yl)-1H-pyrrole-3-carboxamide hydrochloride], the IC50 worked out at 8.1 nM on Bcl-2 protein and 291 nM in assay [1].
Regarding `Cc1cc(C(=O)N(c2ccc(O)cc2)c2cccc(N3CCN(C)CC3)c2)cn1-c1cc2c(cc1C(=O)N1Cc3ccccc3C[C@H]1C)OCO2` [Example 112, N-(4-Hydroxyphenyl)-5-methyl-1-(6-{[(3R)-3-methyl-3,4-dihydroisoquinolin-2(1H)-yl]carbonyl}-1,3-benzodioxol-5-yl)-N-[3-(4-methylpiperazin-1-yl)phenyl]-1H-pyrrole-3-carboxamide hydrochloride], the concentration for half-maximal inhibition (IC50) at Bcl-2 protein is 11.8 nM; in assay [1], 281 nM.
Turning to `O=C(c1cn(-c2cc3c(cc2C(=O)N2Cc4ccccc4C[C@H]2CN2CCOCC2)OCO3)c2c1CCCC2)N(c1ccccc1)c1ccc(O)cc1` [Example 113, N-(4-Hydroxyphenyl)-1-(6-{[(3S)-3-(morpholin-4-ylmethyl)-3,4-dihydroisoquinolin-2(1H)-yl]carbonyl}-1,3-benzodioxol-5-yl)-N-phenyl-4,5,6,7-tetrahydro-1H-indole-3-carboxamide hydrochloride], the IC50 came to 19.2 nM on Bcl-2 protein and 203 nM in assay [1].
In the same order, the values of `Cc1cc(C(=O)N(c2ccc(O)cc2)c2ccc3c(c2)CN(C)C3)cn1-c1cc2c(cc1C(=O)N1Cc3ccccc3C[C@H]1C)OCO2` [Example 114, N-(4-Hydroxyphenyl)-5-methyl-N-(2-methyl-2,3-dihydro-1H-isoindol-5-yl)-1-(6-{[(3R)-3-methyl-3,4-dihydroisoquinolin-2(1H)-yl]carbonyl}-1,3-benzodioxol-5-yl)-1H-pyrrole-3-carboxamide hydrochloride] are 23.7 nM and 726 nM.
As to `Cc1cc(C(=O)N(c2ccc(O)cc2)c2ccc3c(c2)CCN3C)cn1-c1cc2c(cc1C(=O)N1Cc3ccccc3C[C@H]1C)OCO2` [Example 115, N-(4-Hydroxyphenyl)-5-methyl-N-(1-methyl-2,3-dihydro-1H-indol-5-yl)-1-(6-{[(3R)-3-methyl-3,4-dihydroisoquinolin-2(1H)-yl]carbonyl}-1,3-benzodioxol-5-yl)-1H-pyrrole-3-carboxamide hydrochloride], the IC50 on Bcl-2 protein was determined as 14.5 nM; in assay [1] it was 272 nM.
With `Cc1cc(C(=O)N(c2ccc(O)cc2)c2ccc3c(ccn3CCN3CCOCC3)c2)cn1-c1cc2c(cc1C(=O)N1Cc3ccccc3C[C@H]1C)OCO2` [Example 116, N-(4-Hydroxyphenyl)-5-methyl-1-(6-{[(3R)-3-methyl-3,4-dihydroisoquinolin-2(1H)-yl]carbonyl}-1,3-benzodioxol-5-yl)-N-{1-[2-(morpholin-4-yl)ethyl]-1H-indol-5-yl}-1H-pyrrole-3-carboxamide hydrochloride], the IC50 at Bcl-2 protein is 12.1 nM; in assay [1], 131 nM.
Take `Cc1cc(C(=O)N(c2ccc(O)cc2)c2ccc3c(ccn3C)c2)cn1-c1cc2c(cc1C(=O)N1Cc3ccccc3C[C@H]1CN1CCOCC1)CCC2` [Example 117, N-(4-Hydroxyphenyl)-5-methyl-N-(1-methyl-1H-indol-5-yl)-1-(6-{[(3S)-3-(morpholin-4-ylmethyl)-3,4-dihydroisoquinolin-2(1H)-yl]carbonyl}-2,3-dihydro-1H-inden-5-yl)-1H-pyrrole-3-carboxamide hydrochloride]: the figures for the IC50 (on Bcl-2 protein; in assay [1]) were 7.6 nM and 193 nM, respectively.
Take `Cc1cc(C(=O)N(c2ccc(O)cc2)c2ccc3c(ccn3C)c2)cn1-c1cc2c(cc1C(=O)N1Cc3ccccc3C[C@H]1CN1CCOCC1)CCO2` [Example 118, N-(4-Hydroxyphenyl)-5-methyl-N-(1-methyl-1H-indol-5-yl)-1-(5-{[(3S)-3-(morpholin-4-ylmethyl)-3,4-dihydroisoquinolin-2(1H)-yl]carbonyl}-2,3-dihydro-1-benzofuran-6-yl)-1H-pyrrole-3-carboxamide]: the half-maximal inhibitory concentration (IC50) at Bcl-2 protein came to 5.9 nM; in assay [1], 114 nM.
Consider `Cc1cc(C(=O)N(c2ccc(O)cc2)c2ccc3c(ccn3C)c2)cn1-c1cc2occc2cc1C(=O)N1Cc2ccccc2C[C@H]1CN1CCOCC1` [Example 119, N-(4-Hydroxyphenyl)-5-methyl-N-(1-methyl-1H-indol-5-yl)-1-(5-{[(3S)-3-(morpholin-4-ylmethyl)-3,4-dihydroisoquinolin-2(1H)-yl]carbonyl}-1-benzofuran-6-yl)-1H-pyrrole-3-carboxamide hydrochloride], for which the IC50 at Bcl-2 protein is 28.4 nM; in assay [1], 96.4 nM.
In the same order, the values of `Cc1cc(C(=O)N(c2ccccc2)c2ccc(O)cc2)cn1-c1cc2c(cc1C(=O)N1Cc3ccccc3C[C@H]1CCN1CCOCC1)OCO2` [Example 120, N-(4-Hydroxyphenyl)-5-methyl-1-(6-{[(3S)-3-[2-(morpholin-4-yl)ethyl]-3,4-dihydroisoquinolin-2(1H)-yl]carbonyl}-1,3-benzodioxol-5-yl)-N-phenyl-1H-pyrrole-3-carboxamide hydrochloride] are 15 nM and 367 nM.
For the compound `CCCCN(CCCC)C(=O)c1nn(-c2ccccc2C(=O)N2Cc3ccccc3C[C@H]2CN)c2ccccc12` [Example 121, 1-{2-[(3S)-3-(Aminomethyl)-1,2,3,4-tetrahydroisoquinoline-2-carbonyl]-phenyl}-N,N-dibutyl-1H-indazole-3-carboxamide], the results for the IC50 (on Bcl-2 protein; in assay [1]) were 448 nM and 8770 nM, respectively.
For the compound `NC[C@@H]1Cc2ccccc2CN1C(=O)c1ccccc1-n1nc(C(=O)N(c2ccccc2)c2ccccc2)c2ccccc21` [Example 122, 1-{2-[(3S)-3-(Aminomethyl)-1,2,3,4-tetrahydroisoquinoline-2-carbonyl]phenyl}-N,N-diphenyl-1H-indazole-3-carboxamide], the IC50 on Bcl-2 protein was 53.3 nM; in assay [1], 2290 nM.
